Measurements: patent US20240300940A1, “Phenothiazinyl Compounds and Uses” (Prosetta Biosciences, Inc., priority 2023, published 2024)

What was measured:
NL4-3 Rluc virus = experiment: microbe, parasite or virus in culture; format: cell-based, HIV; settings: MT-2 cells, MOI 0.02, 96 hours
Hennes-20 cells = experiment: Hennes-20 oncology screen; format: cell-based; settings: 72 h, alamar Blue
Procedure: To screen compounds for oncology activity Hennes-20 cells were plated at low (500 cells/well) versus high (15,000 cells/well) densities and treated with DMSO (vehicle) or dose-titration of compounds. The rationale for this screen is that an intrinsically toxic compound should kill cells regardless of density, including in Hennes-20 cells. However, a compound that selectively triggers the arrest of proliferation will inhibit cell growth when plated at a low density will appear cytotoxic due to inhibition of cell growth when plated at a low density but will appear non-toxic to cells plated at a high density where the cells are approaching confluence and the readout detected by a cell viability assay is already close to the maximum.
To conduct the Hennes-20 screen, two 96 well plates were seeded with Hennes 20 cells in parallel where one was plated at a density of 500 cells/well and the other was plated at a density of 15,000 cells/well. 90 uL of minimum essential media was added to each well and plates were placed in a 37 degrees Celsius incubator for 24 hours. The next day, 10 ul of media containing dilutions of compound in DMSO were added to each plate. Six wells on each plate received 10 ul of media containing only DMSO. Each well was gently mixed 5 times with a 100 ul pipette. Plates were incubated at 37 degrees Celsius for 72 hours and then 10 uL of alamar Blue was added to each well. Wells were mixed 5 times then incubated at 37 degrees Celsius for […]. Plates were then read at 530/590.
The rationale for the screen is as follows: Hennes-20 cells lack endogenous apoptosis. Cells plated at low density will proliferate and approach confluence in 72 hrs. A drug that arrests proliferation may have its proliferation blocking effect masked by the triggering of endogenous apoptosis. However, in the Hennes line, lacking endogenous apoptosis, such an arrest is manifest as a dose-dependent maintenance at low cell density. Since the high-density cells are plated close to confluence, the difference between Alamar Blue cell survival readings after 72 hrs reflects the ability of the drug to block proliferation in the low density-plated cells. In the high density-plated cells any diminution of Alamar Blue readout vs vehicle control is due to intrinsic toxicity, not proliferation arrest, since cells were already at confluence. Thus, a compound that appears toxic (low Alamar Blue readings after 72 hrs) on the low-density plate, but which appears non-toxic (high Alamar Blue readings after 72 hrs) on the high-density plate, must be arresting proliferation, since intrinsic compound toxicity should be observed at both low and high cell densities, not selectively on the low-density plate.

VACV-LUC virus = experiment: microbe, parasite or virus in culture; format: cell-based; settings: Orthopoxvirus vaccinia, HeLa, 2 h
E. coli ATCC25922 = experiment: MIC assay, serial dilution; settings: for MIC: Escherichia coli, ATCC25922, read-out: Anti-bacterial Activity (E. coli MIC (uM)), E. coli, Table 5
RABV ERA strain = experiment: organism not typed; format: cell-based
[1] = Human immunodeficiency virus 1, NL43, MT2, 96 h

| Structure (SMILES) | EC50 (NL4-3 Rluc virus; [1]) [nM] | EC50 (Hennes-20 cells) [nM] | EC50 (VACV-LUC virus) [nM] | MIC (E. coli ATCC25922) [µM] | Anti-bacterial Activity (E. coli MIC (uM)) (E. coli ATCC25922; E. coli, Table 5) [µM] | EC50 (RABV ERA strain) [nM] | EC50 (NL4-3 Rluc virus) [nM] |
| --- | --- | --- | --- | --- | --- | --- | --- |
| CCc1cc(N(C)C)cc2[s+]c3cc(N4CCCC4)cc(CC)c3nc12 [Compound 36] | 7.6 | < 500 | < 1670 | 1.6 |  |  |  |
| CCc1cc(N2CCCC2)cc2[s+]c3cc(N4CCCC4)cc(C)c3nc12 [Compound 45] | 3.1 | < 2500 | < 1670 | 0.8 |  |  |  |
| CCc1cc(N2CCCC2)cc2[s+]c3cc(N4CCCC4)cc(C(C)C)c3nc12 [Compound 46] | 3 | < 500 |  |  | 3.1 | < 5 |  |
| c1cc2nc3ccc(N4CCCC4)cc3[s+]c2cc1N1CCCC1 [Compound 68] | 42 | < 500 | < 560 | 6.3 |  |  |  |
| CCc1cc(NC(C)C)cc2[s+]c3cc(N4CCCN(C(=O)OC(C)(C)C)CC4)cc(CC)c3nc12 [Compound 69] |  | < 500 | < 5000 |  |  |  |  |
| CCc1cc(N2CCCC2)cc2[s+]c3cc(N(C)C)cc(C(C)C)c3nc12 [Compound 73] | 1.8 | 500 | 1670 | 100 |  | < 500 |  |
| CCc1cc(N2CCCCCC2)cc2[s+]c3cc(N(C)C4CCNCC4)cc(CC)c3nc12 [Compound 77] |  | < 2500 | 1670 | 3.1 |  |  |  |
| CCc1cc(N(C)C)cc2[s+]c3cc(N4CCCNCC4)cc(CC)c3nc12 [Compound 83] |  | < 12500 | 1670 | 100 |  | < 500 | 270 |
